Data: paper PMC6488665 (2019)

System: kdp c-di-AMP riboswitch transcript (5'-UTR of kdpFABC, run-off from -88 to +363 template) (RNA, riboswitch) AUAAAUCAUUCAUAAAAUUUCCAAAAAAACCUAAAAUCGCUGAGUUCCAGAAAUGGAGCGGGGGAACCAAUUUUGUGCAUCGUCACUUGGGGUGAAUCUUUCAGUUUUGAAAGUAGGGCUACUCUUUAGGCCCGAAUCCGACAGCUAACCUCGUAAGCGUUUAGAGAGGAGGUUUACUUUUUGUUGUUCAUUUUUUGAACACUGAGUAGAGCUCAGUGUUCUUUUUUAAUAUUUAAAUGGUAAAUUUUAACAAAAAAGAGGGGAUAGUUAUGUUAGAUGUUGUAAUGGUCGGGAUUUUUAUUUUAUUAGUUGCAUCGAUGGCAAGUCUUGCAAGUUGGUCAGAUAAAGUUGUGAAAGAAGGA
Test: in vitro transcription termination (E. coli RNA polymerase), gel
Settings: 150 mM KCl, 10 mM MgCl2; 40 mM Tris-HCl pH 7.5, 37 °C; c-di-AMP 0-5 µM; termination rises 27% to 63%; functional, no constant

binding: yes
Structure (SMILES): Nc1ncnc2c1ncn2[C@@H]1O[C@@H]2COP(=O)(O)O[C@H]3[C@@H](O)[C@H](n4cnc5c(N)ncnc54)O[C@@H]3COP(=O)(O)O[C@H]2[C@H]1O
